From patent US20240418717A1, “APPARATUS AND METHOD FOR ANALYZING PLATELET AGGREGATION” (MEDTRONIC VASCULAR, INC., priority 2020, published 2024)

Columns and labels:
[1] = test system: platelets in platelet rich plasma (PRP); test: Platelet aggregation by washer (disk) minimum position in platelet rich plasma; type: cell-based; settings: platelet rich plasma containing 1.5 U/mL heparin; 20 micromolar ADP; relative to absence of ADP; FIG. 8
Source text: Platelet rich plasma (PRP) containing 1.5 U/mL heparin was filled into a six-channel cartridge similar to cartridge 200 depicted in and described regarding FIG. 7 for use with an analyzer similar to analyzer 300 depicted in and described regarding FIG. 6. The analyzer and cartridge were similar to those described in U.S. Pat. Nos. 5,629,209 and 6,613,286.
One chamber of the cartridge contained ADP such that the concentration in the chamber was 20 micromolar after introduction of the sample. Another chamber included no ADP. No other clot enhancing agent was in the sample or chamber of the cartridge. The chambers included a ferromagnetic washer. The cartridge was inserted in the analyzer before PRP sample fill. Immediately after the sample introduction, the test began, and platelet aggregation was analyzed.
The analyzer was programmed to hold the washer (disk) at the top of the chamber for 90 to 95% of the test cycle (a test cycle is the time sum of lift time and drop time), which was about 4.5 seconds for a test cycle of 5 seconds, to ensure platelets in the test sample aggregated and accumulated at the bottom of the chamber. The washer was allowed to drop (electromagnet deactivated), and the washer minimum position was determined by the proximity sensor (e.g., sensor 30 depicted in and described regarding FIGS. 2-5) in the presence and absence of ADP.

platelet poor plasma = test: Platelet aggregation by washer (disk) minimum position in platelet poor plasma; type: cell-based; settings: platelet poor plasma containing 1.5 U/mL heparin; 20 micromolar ADP; FIG. 9
Source text: Platelet poor plasma […] containing 1.5 U/mL heparin was filled into a six-channel cartridge similar to cartridge 200 depicted in and described regarding FIG. 7 for use with a blood analyzer similar to analyzer 300 depicted and described regarding FIG. 6. The analyzer and cartridge were similar to those described in U.S. Pat. Nos. 5,629,209 and 6,613,286. A chamber of the cartridge contained ADP such that the concentration in the chamber was 20 micromolar after introduction of the sample. No other clot enhancing agent was in the sample or chamber of the cartridge. The chambers included a ferromagnetic washer. Following introduction of the sample after the cartridge was inserted into the blood analyzer, the test was started, and platelet aggregation was analyzed. The blood analyzer was programmed to hold the washer (disk) at the top of the chamber for 90 to 95% of the test cycle (a test cycle is the time sum of lift time and drop time), which was about 4.5 seconds for a test cycle of 5 seconds, to ensure platelets in the test sample aggregated and accumulated at the bottom of the chamber. The washer was allowed to drop (electromagnet deactivated), and the washer minimum position was determined.

## Nc1ncnc2c1ncn2[C@@H]1O[C@H](COP(=O)(O)OP(=O)(O)O)[C@@H](O)[C@H]1O [ADP, adenosine diphosphate]
[1]
  washer (disk) minimum position (platelet aggregation): increased
Platelet poor plasma
  disk minimal position (platelet aggregation): did not increase
